This note sets out measurements from ChEMBL document CHEMBL1134617 (J Med Chem, 2001).

Experiment [1] deals with T1, 5-hydroxytryptamine receptor 2C (Rattus norvegicus, UniProt P08909).
T1 sequence (P08909 whole entry): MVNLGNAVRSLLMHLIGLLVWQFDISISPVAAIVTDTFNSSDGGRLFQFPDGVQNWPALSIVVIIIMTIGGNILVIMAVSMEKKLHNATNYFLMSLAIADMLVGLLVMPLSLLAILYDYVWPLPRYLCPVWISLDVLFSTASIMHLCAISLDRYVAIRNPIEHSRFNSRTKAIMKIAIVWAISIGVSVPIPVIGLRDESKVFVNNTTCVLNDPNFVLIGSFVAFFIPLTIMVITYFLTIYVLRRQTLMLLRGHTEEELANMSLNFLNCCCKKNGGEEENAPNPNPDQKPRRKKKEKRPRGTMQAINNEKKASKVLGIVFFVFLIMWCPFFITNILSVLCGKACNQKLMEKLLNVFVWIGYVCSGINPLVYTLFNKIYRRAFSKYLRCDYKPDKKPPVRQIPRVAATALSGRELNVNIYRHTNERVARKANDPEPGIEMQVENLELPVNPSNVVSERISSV
In words: Binding affinity against rat 5-hydroxytryptamine 2C receptor using [3H]mesulergine as radioligand.

In experiment [2] the target is T2, 5-hydroxytryptamine receptor 2A (Rattus norvegicus, UniProt P14842). The experiment in a line: Binding affinity against rat 5-hydroxytryptamine 2A receptor using [3H]DOB as radioligand.
T2 sequence (P14842 whole entry): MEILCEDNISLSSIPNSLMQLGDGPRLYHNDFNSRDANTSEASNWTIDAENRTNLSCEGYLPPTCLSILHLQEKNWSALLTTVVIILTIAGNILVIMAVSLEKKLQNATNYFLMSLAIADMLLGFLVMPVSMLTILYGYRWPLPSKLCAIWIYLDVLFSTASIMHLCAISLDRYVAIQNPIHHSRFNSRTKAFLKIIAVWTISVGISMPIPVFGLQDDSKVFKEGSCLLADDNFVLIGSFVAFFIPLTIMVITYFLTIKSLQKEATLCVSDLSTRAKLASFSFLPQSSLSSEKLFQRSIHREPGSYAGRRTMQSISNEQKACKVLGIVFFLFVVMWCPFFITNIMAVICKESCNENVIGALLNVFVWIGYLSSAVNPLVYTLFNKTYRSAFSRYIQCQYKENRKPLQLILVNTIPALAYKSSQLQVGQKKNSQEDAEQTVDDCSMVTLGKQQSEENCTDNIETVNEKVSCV
In experiment [3] the target is T2, 5-hydroxytryptamine receptor 2A. In words: Binding affinity against rat 5-hydroxytryptamine 2A receptor using [3H]ketanserin as radioligand.
For experiment [4], the target named is Serotonin receptor 2a and 2c (5HT2A and 5HT2C) (Rattus norvegicus) (UniProt P08909+P14842). The experiment in a line: Ratio of binding affinity towards rat 5-HT2C and 5-HT2A receptors. The experiment is classed as protein assay.
Serotonin receptor 2a and 2c (5HT2A and 5HT2C) (Rattus norvegicus), sequence (P14842 whole entry, looked up, one chain of several): as the sequence (P14842 whole entry) above

A value given as a limit tells only on which side of the number the result lay.

Regarding `COc1ccc(Br)cc1CCN`, the Ki came to 960 nM in experiment [1], 208 nM in experiment [2] and 1000 nM in experiment [3]. Further, the Ratio in experiment [4] was found to be 1.

In the case of `COc1ccc(CCCc2ccccc2)cc1CCN`, the Ki is 220 nM in experiment [1], 30 nM in experiment [2] and 20 nM in experiment [3]. For the same molecule, in experiment [4], the Ratio was 11.

Consider `COc1ccc(CCCCCc2ccccc2)cc1CCN`, for which the inhibition constant Ki turned out to be 150 nM in experiment [1] and 110 nM in experiment [3]. The Ratio in experiment [4] worked out at 1.

Take `COc1cc(CCCC2CCCCC2)ccc1CCN`: the Ki was 116 nM in experiment [1], 250 nM in experiment [2] and 438 nM in experiment [3]. In addition, the Ratio in experiment [4] was under 1.

Consider `COc1ccc(CCCc2ccccc2)cc1CC(C)N` (configuration not stated), for which the results for the inhibitory constant (Ki) in experiment [1], in experiment [2] and in experiment [3] were 110 nM, 19 nM and 13 nM, respectively. Further, in experiment [4], the Ratio stood at 8.

In the case of `COc1ccc(CCc2ccccc2)cc1CCN`, the Ki in experiment [1] was determined as 435 nM; in experiment [3], 240 nM. The Ratio in experiment [4] was 2.

With `COc1cc(CCc2ccccc2)ccc1CCN`, the Ki stood at 170 nM in experiment [1] and 46 nM in experiment [3]. Further, the Ratio in experiment [4] worked out at 4.

On to `COc1cc(CCCCCc2ccccc2)ccc1CCN`, for which the Ki in experiment [1] came out at 19 nM; in experiment [2], 18 nM; in experiment [3], 72 nM. For the same molecule, the Ratio in experiment [4] is under 1.

For the molecule `COc1ccc(OCCc2ccccc2)cc1CCN`, the values for the Ki in experiment [1], in experiment [2] and in experiment [3] were 1790 nM, 440 nM and 600 nM, respectively. The Ratio in experiment [4] was 3.

Turning to `COc1cc(Cc2ccccc2)ccc1CCN`, the Ki in experiment [1] stood at 93 nM; in experiment [3] it was 23 nM. For the same molecule, in experiment [4], the Ratio came to 4.

On to `COc1cc(CCCCc2ccccc2)ccc1CCN`, for which the inhibition constant (Ki) stood at 68 nM in experiment [1], 42 nM in experiment [2] and 59 nM in experiment [3]. Besides, the Ratio in experiment [4] was 1.

On to `COc1ccc(OCCc2ccc(Br)cc2)cc1CCN`, for which the inhibition constant Ki worked out at 115 nM in experiment [1], 35 nM in experiment [2] and 91 nM in experiment [3]. The Ratio in experiment [4] stood at 1.

Turning to `COc1ccc(CCCC2CCCCC2)cc1CCN`, the inhibition constant Ki in experiment [1] was found to be 198 nM; in experiment [2], 760 nM; in experiment [3], 380 nM. The Ratio in experiment [4] was under 1.

As for `COc1ccc(I)cc1CCN`, the Ki came to 1640 nM in experiment [1], 211 nM in experiment [2] and 700 nM in experiment [3]. The Ratio in experiment [4] is 2.

Take `COc1ccc(CCCCc2ccccc2)cc1CCN`: the figures for the inhibition constant Ki in experiment [1], in experiment [2] and in experiment [3] were 71 nM, 67 nM and 89 nM, respectively. Moreover, in experiment [4], the Ratio came to 1.

Turning to `COc1cc(OCCc2ccccc2)ccc1CCN`, the inhibition constant Ki in experiment [1] came to 810 nM; in experiment [2], 110 nM; in experiment [3] it was 172 nM. In addition, the Ratio in experiment [4] turned out to be 5.

Consider `COc1cc(-c2ccccc2)ccc1CCN`, for which the Ki came out at 1520 nM in experiment [1], 4900 nM in experiment [2] and 6720 nM in experiment [3]. In experiment [4], the Ratio is under 1.

For the molecule `COc1cc(C#CCCCc2ccccc2)ccc1CCN`, the Ki amounted to 70 nM in experiment [1], 240 nM in experiment [2] and 295 nM in experiment [3]. Further, in experiment [4], the Ratio was under 1.

For the molecule `COc1ccc(Cc2ccccc2)cc1CCN`, the inhibition constant (Ki) amounted to 230 nM in experiment [1] and 176 nM in experiment [3]. The Ratio in experiment [4] is 1.

`COc1ccc(C#CCCCc2ccccc2)cc1CCN`: the inhibition constant (Ki) came to 205 nM in experiment [1] and 295 nM in experiment [3]. In experiment [4], the Ratio is under 1.

As for `COc1ccc(-c2ccccc2)cc1CCN`, the Ki in experiment [1] was 2870 nM; in experiment [2] it was 1520 nM; in experiment [3], 3460 nM. In addition, the Ratio in experiment [4] was determined as 1.

`COc1ccc(O)cc1CCN`: the values for the inhibition constant Ki in experiment [1], in experiment [2] and in experiment [3] were 4860 nM, 1330 nM and 5960 nM, respectively. Besides, the Ratio in experiment [4] was 1.

Consider `COc1cc(CCCc2ccccc2)ccc1CC(C)N` (configuration not stated), for which, in experiment [4], the Ratio turned out to be 11.

`COc1cc(CCCc2ccccc2)ccc1CCN`: the figures for the Ki in experiment [1], in experiment [2] and in experiment [3] were 295 nM, 12 nM and 18 nM, respectively. Also, in experiment [4], the Ratio stood at 16.

On to `COc1ccc(OC)c(CCN)c1`, for which the inhibitory constant (Ki) in experiment [1] was found to be 6400 nM; in experiment [3], 2820 nM. Moreover, the Ratio in experiment [4] came to 2.

On to `COc1ccccc1CCN`, for which the Ki in experiment [1], in experiment [2] and in experiment [3] was over 10000 nM in each case.

In the case of `COc1ccc(OCc2ccccc2)cc1CCN`, the Ki in experiment [1] stood at 410 nM; in experiment [2], 255 nM; in experiment [3], 345 nM. Also, the Ratio in experiment [4] worked out at 1.
